Measurements published in patent US9963456B2, “Pyrrolopyrimidine compound or salt thereof and compositions containing the pyrrolopyrimidine compound or salt thereof” (TAIHO PHARMACEUTICAL CO., LTD., priority 2014, dated 2018).

Experiments:
[1] = tested on: Human colon cancer HCT-116 cell lines; test: Antitumor effect on tumor cells transplanted into mice 1; format: in vivo
Protocol: Human colon cancer HCT-116 cell lines were washed in PBS and suspended at a concentration of 4×10^7 cells/mL. 0.1 mL of this cell suspension was subcutaneously implanted in the right chest of 6-week-old BALB/cAJcl-nu/nu mice (produced by CLEA Japan, Inc.).
(§1) The length and the width of the implanted tumor and the body weight were measured. The tumor volume (TV) was calculated using the following equation (equation D). TV(mm3)=(length×width^2)/2, wherein the unit of length and width is mm (equation D).
When the TV reached 100 to 300 mm3, the animals were assigned to each group in accordance with a stratified randomization procedure. The day was considered day 1, the TV on the day was considered TV1, and the body weight on the day was considered BW1.
A required amount of the test compound was weighed to prepare an administration solution.
(§2) Thereafter, the length and the width of the tumor and the body weight (BWn) on day n were measured over time in the same manner, and the TVn of each mouse was calculated. Further, the relative tumor volume (RTVn) was calculated based on the TVn of each mouse using the following equation (equation E); the treatment/control (T/C) value (%) was calculated based on the mean RTVn of each drug administration group using the following equation (equation F); and the weight change rate (BWCn) was calculated using the following equation (equation G). RTVn=TVn/TV1 (equation E) T/Cn(%)=(mean RTV of each drug administration group on the last day of the test)/(mean RTV of the control group on the last day of the test)×100 (equation F) BWCn (%)=(BWn−BW1)/BW1×100 (equation G) FIGS. 1 and 2, and Table 21 below show the results.

[2] = target: NAE (heterodimer of APPBP1 and UBA3) (Homo sapiens (Human), UniProt Q8TBC4); test: Nedd8 conjugation inhibitory activity (AlphaScreen assay); format: biochemical; conditions: purified NAE, GST-UBC12, Biotin-Nedd8, ATP
carbonic anhydrase II = carbonic anhydrase II (Homo sapiens (Human), UniProt P00918); test: Carbonic anhydrase II enzyme activity inhibition (4-NPA esterase activity); format: biochemical; conditions: 4-nitrophenyl acetate esterase activity, absorbance at 405 nm
[3] = tested on: human acute lymphoblastic leukemia (ALL) CCRF-CEM cell lines; test: Antitumor effect on tumor cells transplanted into mice 3; format: in vivo; conditions: for T/C15 / RTV comparison with the Comparative Example / RTV comparison with the control on day 15 / BWC15 Mean ± SD: CCRF-CEM xenograft in nude mice; for T/C15 / BWC15 Mean ± SD: 50 mg/kg/day intravenous; for T/C15: administration days 1, 8, day 15; for RTV comparison with the Comparative Example / RTV comparison with the control on day 15: compound hydrochlorides intravenously, Dunnett's test; for BWC15 Mean ± SD: body weight change rate, days 1, 8, day 15; for change of the body weight compared with the control: CCRF-CEM xenograft mice
Protocol: as §1, §2
The tumor growth inhibitory effects on human tumors were evaluated as in Test Example 5, except that the compound hydrochloride obtained in Example 122, the compound hydrochloride (Example 64), and human acute lymphoblastic leukemia (ALL) CCRF-CEM cell lines were used, and the animals were assigned to each group in accordance with a stratified randomization procedure when the TV reached 140 to 380 mm3.
At this time, the cell lines were washed in PBS, and suspended in 50% PBS and 50% Matrigel basement membrane matrix (#356237; produced by BD Biosciences) at a concentration of 1×10^8 cells/mL. 0.1 mL of this cell suspension was subcutaneously implanted to the right chest of 6-week-old BALB/cAJcl-nu/nu mice (nude mice) (produced by CLEA Japan, Inc.). The compound hydrochloride (Example 122) was intravenously administered in an amount of 5 mL per 1 kg of body weight on days 1 and 8, and the compound hydrochloride (Example 133) was intravenously administered in an amount of 5 mL per 1 kg of body weight on days 1 and 8.

NAE (heterodimer of APPBP1 and UBA3), sequence (Q8TBC4 whole entry): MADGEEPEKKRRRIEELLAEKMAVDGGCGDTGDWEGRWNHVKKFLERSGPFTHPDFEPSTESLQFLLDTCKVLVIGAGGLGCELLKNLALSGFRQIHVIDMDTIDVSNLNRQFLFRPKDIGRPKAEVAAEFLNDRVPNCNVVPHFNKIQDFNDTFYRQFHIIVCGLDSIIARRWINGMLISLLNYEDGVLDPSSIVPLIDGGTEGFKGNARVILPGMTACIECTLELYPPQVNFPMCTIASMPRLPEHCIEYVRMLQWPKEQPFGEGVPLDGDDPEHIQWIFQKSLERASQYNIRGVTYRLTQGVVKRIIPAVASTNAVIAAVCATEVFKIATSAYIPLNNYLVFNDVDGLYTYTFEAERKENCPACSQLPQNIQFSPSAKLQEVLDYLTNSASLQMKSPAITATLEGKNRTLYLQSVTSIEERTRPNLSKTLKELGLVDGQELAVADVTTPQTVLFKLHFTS
NAE (heterodimer of APPBP1 and UBA3), sequence (Q13564 whole entry partner): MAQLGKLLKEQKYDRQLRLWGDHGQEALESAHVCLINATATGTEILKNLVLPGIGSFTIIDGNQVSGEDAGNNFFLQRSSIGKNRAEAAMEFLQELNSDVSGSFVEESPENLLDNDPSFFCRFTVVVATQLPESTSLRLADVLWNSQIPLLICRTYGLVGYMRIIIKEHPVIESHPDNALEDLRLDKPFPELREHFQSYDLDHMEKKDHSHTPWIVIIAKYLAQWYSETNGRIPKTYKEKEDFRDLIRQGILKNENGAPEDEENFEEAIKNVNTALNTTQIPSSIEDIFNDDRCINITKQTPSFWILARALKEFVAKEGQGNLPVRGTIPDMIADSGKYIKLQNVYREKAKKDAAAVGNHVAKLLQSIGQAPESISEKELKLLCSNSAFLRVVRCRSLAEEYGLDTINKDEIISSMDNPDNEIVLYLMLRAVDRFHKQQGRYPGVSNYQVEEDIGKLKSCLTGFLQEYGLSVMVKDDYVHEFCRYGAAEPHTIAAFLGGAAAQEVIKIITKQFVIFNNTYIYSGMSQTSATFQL

SMILES	IC50 [2]	IC50 (carbonic anhydrase II)	other results
Nc1ncnc2c1c(C#Cc1c(F)cccc1F)cn2[C@@H]1O[C@H](CNS(N)(=O)=O)[C@@H](O)[C@H]1O [Example 1, 4-Amino-5-[2-(2,6-difluorophenyl)ethynyl]-7-[(2R,3R,4S,5R)-3,4-dihydroxy-5-[(sulfamoylamino)methyl]tetrahydrofuran-2-yl]pyrrolo[2,3-d]pyrimidine]	–	–	T/C15 (%) ([1]; HCT-116 s.c. in BALB/cAJcl-nu/nu mice, 50 mg/kg/day intravenously on days 1, 4, 8, 11, day 15): 23%; change of the body weight compared with the control ([1]; HCT-116 xenograft mice): within an acceptable degree; RTV comparison with the Comparative Example ([1]; HCT-116 xenograft, Aspin-Welch's t-test): significantly lower than that of the Comparative Example; RTV15 comparison with the control ([1]; HCT-116 xenograft, Dunnett's test): significantly lower than that of the control; BWC15 (%) Mean ± SD ([1]; body weight change, 50 mg/kg/day intravenously on days 1, 4, 8, 11, day 15): −11.8 ± 4.7%
CNc1cc(F)c(C#Cc2cn([C@@H]3O[C@H](CNS(N)(=O)=O)[C@@H](O)[C@H]3O)c3ncnc(N)c23)c(F)c1 [Example 25, 4-Amino-5-[2-[2,6-difluoro-4-(methylamino)phenyl]ethynyl]-7-[(2R,3R,4S,5R)-3,4-dihydroxy-5-[(sulfamoylamino)methyl]tetrahydrofuran-2-yl]pyrrolo[2,3-d]pyrimidine]	0.0048 µM	> 1 µM	–
Nc1ncnc2c1c(C#Cc1c(F)cc(N3CC[C@@H](F)C3)cc1F)cn2[C@@H]1O[C@H](CNS(N)(=O)=O)[C@@H](O)[C@H]1O [Example 29, 4-Amino-5-[2-[2,6-difluoro-4-[(3R)-3-fluoropyrrolidin-1-yl]phenyl]ethynyl]-7-[(2R,3R,4S,5R)-3,4-dihydroxy-5-[(sulfamoylamino)methyl]tetrahydrofuran-2-yl]pyrrolo[2,3-d]pyrimidine]	0.0071 µM	> 1 µM	–
Nc1ncnc2c1c(C#Cc1c(F)cc(N3CCC3)cc1F)cn2[C@@H]1O[C@H](CNS(N)(=O)=O)[C@@H](O)[C@H]1O [Example 43, 4-amino-5-[2-[4-(azetidin-1-yl)-2,6-difluoro-phenyl]ethynyl]-7-[(2R,3R,4S,5R)-3,4-dihydroxy-5-[(sulfamoylamino)methyl]tetrahydrofuran-2-yl]pyrrolo[2,3-d]pyrimidine]	0.0076 µM	> 1 µM	–
Nc1ncnc2c1c(C#Cc1ccccc1F)cn2[C@@H]1O[C@H](CNS(N)(=O)=O)[C@@H](O)[C@H]1O [Example 46, 4-Amino-7-[(2R,3R,4S,5R)-3,4-dihydroxy-5-[(sulfamoylamino)methyl]tetrahydrofuran-2-yl]-5-[2-(2-fluorophenyl)ethynyl]pyrrolo[2,3-d]pyrimidine]	0.013 µM	> 1 µM	–
COc1ccccc1C#Cc1cn([C@@H]2O[C@H](CNS(N)(=O)=O)[C@@H](O)[C@H]2O)c2ncnc(N)c12 [Example 47, 4-Amino-7-[(2R,3R,4S,5R)-3,4-dihydroxy-5-[(sulfamoylamino)methyl]tetrahydrofuran-2-yl]-5-[2-(2-methoxyphenyl)ethynyl]pyrrolo[2,3-d]pyrimidine]	0.0093 µM	> 1 µM	–
Nc1ncnc2c1c(C#Cc1ccc(OCc3ccccc3)cn1)cn2[C@@H]1O[C@H](CNS(N)(=O)=O)[C@@H](O)[C@H]1O [Example 52, 4-Amino-5-[2-(5-benzyloxy-2-pyridyl)ethynyl]-7-[(2R,3R,4S,5R)-3,4-dihydroxy-5-[(sulfamoylamino)methyl]tetrahydrofuran-2-yl]pyrrolo[2,3-d]pyrimidine]	0.008 µM	> 1 µM	–
CCCOc1cccc(F)c1C#Cc1cn([C@@H]2O[C@H](CNS(N)(=O)=O)[C@@H](O)[C@H]2O)c2ncnc(N)c12 [Example 60, 4-Amino-7-[(2R,3R,4S,5R)-3,4-dihydroxy-5-[(sulfamoylamino)methyl]tetrahydrofuran-2-yl]-5-[2-(2-fluoro-6-propoxy-phenyl)ethynyl]pyrrolo[2,3-d]pyrimidine]	0.0085 µM	> 1 µM	–
CN1CCOc2c1ccc(F)c2C#Cc1cn([C@@H]2O[C@H](CNS(N)(=O)=O)[C@@H](O)[C@H]2O)c2ncnc(N)c12 [Example 64, 8-[2-[4-Amino-7-[(2R,3R,4S,5R)-3,4-dihydroxy-5-[(sulfamoylamino)methyl]tetrahydrofuran-2-yl]pyrrolo[2,3-d]pyrimidin-5-yl]ethynyl]-7-fluoro-4-methyl-2,3-dihydro-1,4-benzoxazine]	0.0094 µM	> 1 µM	T/C15 [3]: 8%; RTV comparison with the Comparative Example [3]: significantly lower than that of the Comparative Example; RTV comparison with the control on day 15 [3]: significantly lower than that of the control; BWC15 Mean ± SD [3]: 4.1 ± 1.6%
CCSc1cccc(F)c1C#Cc1cn([C@@H]2O[C@H](CNS(N)(=O)=O)[C@@H](O)[C@H]2O)c2ncnc(N)c12 [Example 66, 4-Amino-7-[(2R,3R,4S,5R)-3,4-dihydroxy-5-[(sulfamoylamino)methyl]tetrahydrofuran-2-yl]-5-[2-(2-ethylsulfanyl-6-fluoro-phenyl)ethynyl]pyrrolo[2,3-d]pyrimidine]	0.0071 µM	> 1 µM	–
Nc1ncnc2c1c(C#Cc1c(F)cc(N3CC[C@@H](O)C3)cc1F)cn2[C@@H]1C[C@H](CNS(N)(=O)=O)[C@@H](O)[C@H]1O [Example 120, 4-Amino-5-[2-[2,6-difluoro-4-[(3R)-3-hydroxypyrrolidin-1-yl]phenyl]ethynyl]-7-[(1R,2S,3R,4R)-2,3-dihydroxy-4-[(sulfamoylamino)methyl]cyclopentyl]pyrrolo[2,3-d]pyrimidine]	0.0043 µM	> 1 µM	RTV comparison with the control on day 15 [3]: significantly lower than that of the control; change of the body weight compared with the control [3]: almost the same as that of the control
CN1CCOc2c1ccc(F)c2C#Cc1cn([C@@H]2C[C@H](CNS(N)(=O)=O)[C@@H](O)[C@H]2O)c2ncnc(N)c12 [Example 122, 8-[2-[4-amino-7-[(1R,2S,3R,4R)-2,3-dihydroxy-4-[(sulfamoylamino)methyl]cyclopentyl]pyrrolo[2,3-d]pyrimidin-5-yl]ethynyl]-7-fluoro-4-methyl-2,3-dihydro-1,4-benzoxazine]	0.02 µM	> 1 µM	T/C15 [3]: 6%; RTV comparison with the Comparative Example [3]: significantly lower than that of the Comparative Example; RTV comparison with the control on day 15 [3]: significantly lower than that of the control; BWC15 Mean ± SD [3]: 6.0 ± 4.5%
Nc1ncnc2c1c(C#Cc1cccc3ccccc13)cn2[C@@H]1O[C@H](COS(N)(=O)=O)[C@@H](O)[C@H]1O [Example 133, [(2R,3S,4R,5R)-5-[4-Amino-5-[2-(1-naphthyl)ethynyl]pyrrolo[2,3-d]pyrimidin-7-yl]-3,4-dihydroxy-tetrahydrofuran-2-yl]methyl sulfamate]	0.025 µM	–	RTV comparison with the control on day 15 [3]: significantly lower than that of the control; change of the body weight compared with the control [3]: almost the same as that of the control
CCS(=O)(=O)c1cccc(F)c1C#Cc1cn([C@H]2C[C@H](O)[C@@H](CNS(N)(=O)=O)O2)c2ncnc(N)c12 [Example 143, 4-Amino-5-[2-(2-ethylsulfonyl-6-fluoro-phenyl)ethynyl]-7-[(2R,4S,5R)-4-hydroxy-5-[(sulfamoylamino)methyl]tetrahydrofuran-2-yl]pyrrolo[2,3-d]pyrimidine]	0.024 µM	> 1 µM	–
